These are literature values, as cited in patent US20210290548A1, “FORMULATIONS OF RALTEGRAVIR” (Merck Sharp & Dohme Corp., priority 2018, published 2021).

Like-named read-outs stand apart in the source and are kept apart here.

For `Cc1nnc(C(=O)NC(C)(C)c2nc(C(=O)NCc3ccc(F)cc3)c([O-])c(=O)n2C)o1.[K+]` [Raltegravir potassium, N-[(4-Fluorophenyl)methyl]-1,6-dihydro5-hydroxy-1-methyl-2-[1-methyl-1-[[(5-methyl-1,3,4-oxadiazol-2-yl)carbonyl]amino]ethyl]-6-oxo-4pyrimidinecarboxamide monopotassium salt], the solubility result by setting is: (acetonitrile) “very slightly soluble”; (ethanol) “very slightly soluble”; (isopropanol) “insoluble”; (methanol) “slightly soluble”; (water) “soluble”.
